Measured values taken from patent US10633350B2, “Diphenyl derivatives and uses thereof” (NOVARTIS AG, priority 2017, dated 2020).

Key:
[1] = test system: Akt; assay: Akt activation assay (Phospho-AKT (Ser473) antibody staining) in U2OS GFP-FoxO3a H212R reporter cells; format: cell-based; conditions: Homo sapiens, 0.5 h, serum starved overnight, 30 minutes compound treatment, total cellular intensity of Phospho-Akt (Ser473) antibody staining, AC50 = concentration that results in 50% activation or inhibition
Protocol: (§1) Phosphorylation of Akt on S473 and FoxO3a nuclear to cytoplasmic translocation were used as readouts of PI3K/Akt/mTOR pathway activation downstream of growth factor signaling.
(§2) Reporter cell line. U2OS GFP-FoxO3a H212R reporter cell line was established by transducing U2OS cells with the retroviral plasmid pLEGFP-C1 containing FoxO3a H212R transgene and selecting for G418 resistant clones.
(§3) Reporter assay. U2OS GFP-FoxO3a H212R cells were plated in 384-well plates at 4000 cells per well in 30 microliters of McCoy's 5A medium containing 10% FBS. On day 1 the cells were washed with serum free medium and serum starved overnight. On day 2 the cells were treated with different doses of the compounds for 30 minutes, fixed with 4% Paraformaldehyde for 1 hour and stained with Phospho-AKT (Ser473) antibody (Cell Signaling Technology, catalog #4060) overnight at 4° C. After nuclei staining with Hoechst 33342 (Life Technologies, catalog # H3570) the plates were imaged with InCell 2000 (GE Healthcare Bio-Sciences). FoxO3a inhibition activity is calculated as the ratio of nuclear to cytosolic GFP intensity in percent. Akt activation is measured as the total cellular intensity of Phospho-Akt antibody staining in percent. DMSO control is set as 0% activity.

[2] = test system: FoxO3a; assay: FoxO3a inhibition assay (GFP-FoxO3a nuclear to cytoplasmic translocation) in U2OS GFP-FoxO3a H212R reporter cells; format: cell-based; conditions: Homo sapiens, 0.5 h, serum starved overnight, 30 minutes compound treatment, ratio of nuclear to cytosolic GFP intensity, AC50 = concentration that results in 50% activation or inhibition, read-out: FoxO AC50
Protocol: as §1, §2, §3

SMILES	AC50 [1] [nM]	AC50 [2] [nM]
Cc1cc(C(N)=O)nn1-c1ccc(Cc2ccc(-c3ccc([C@@H]4CCCN4C)cc3)cc2)cc1 [Example 5-8, (S)-5-methyl-1-(4-((4′-(1-methylpyrrolidin-2-yl)-[1,1′-biphenyl]-4-yl)methyl)phenyl)-1H-pyrazole-3-carboxamide]	145	76
Cc1cc(C(N)=O)nn1-c1ccc(C(C)(C)c2ccc(-c3ccc(CN4CCCC4)cc3)cc2)cc1 [Example 6-1, 5-methyl-1-(4-(2-(4′-(pyrrolidin-1-ylmethyl)-[1,1′-biphenyl]-4-yl)propan-2-yl)phenyl)-1H-pyrazole-3-carboxamide]	292	115
Cc1cc(C(N)=O)nn1-c1ccc(C(C)(C)c2ccc(-c3cccc(S(C)(=O)=O)c3)cc2)cc1 [Example 6-2, 5-methyl-1-(4-(2-(3′-(methylsulfonyl)-[1,1′-biphenyl]-4-yl)propan-2-yl)phenyl)-1H-pyrazole-3-carboxamide]	1810	480
Cc1cc(C(N)=O)nn1-c1ccc(C(C)(C)c2ccc(-c3ccncc3)cc2)cc1 [Example 6-3, 5-methyl-1-(4-(2-(4-(pyridin-4-yl)phenyl)propan-2-yl)phenyl)-1H-pyrazole-3-carboxamide]	432	149
Cc1cc(C(N)=O)nn1-c1ccc(C(C)(C)c2ccc(-c3ccc4[nH]ncc4c3)cc2)cc1 [Example 6-4, 1-(4-(2-(4-(1H-indazol-5-yl)phenyl)propan-2-yl)phenyl)-5-methyl-1H-pyrazole-3-carboxamide]	1040	517
Cc1cc(C(N)=O)nn1-c1ccc(C(C)(C)c2ccc(-c3ccnc(N)c3)cc2)cc1 [Example 6-5, 1-(4-(2-(4-(2-aminopyridin-4-yl)phenyl)propan-2-yl)phenyl)-5-methyl-1H-pyrazole-3-carboxamide]	415	134
Cc1nnc(-c2ccc(-c3ccc(C(C)(C)c4ccc(-n5nc(C(N)=O)cc5C)cc4)cc3)cc2)o1 [Example 6-6, 5-methyl-1-(4-(2-(4′-(5-methyl-1,3,4-oxadiazol-2-yl)-[1,1′-biphenyl]-4-yl)propan-2-yl)phenyl)-1H-pyrazole-3-carboxamide]	842	283
Cc1cc(C(N)=O)nn1-c1ccc(C(C)(C)c2ccc(C3=CCC(=O)CC3)cc2)cc1 [Example 7, 5-methyl-1-(4-(2-(4′-oxo-2′,3′,4′,5′-tetrahydro-[1,1′-biphenyl]-4-yl)propan-2-yl)phenyl)-1H-pyrazole-3-carboxamide]	276	58
Cc1cc(C(N)=O)nn1-c1ccc(C(C)(C)c2ccc(C3=CCC(N4CCOCC4)CC3)cc2)cc1 (stereo not drawn) [Example 8, 5-methyl-1-(4-(2-(4′-morpholino-2′,3′,4′,5′-tetrahydro-[1,1′-biphenyl]-4-yl)propan-2-yl)phenyl)-1H-pyrazole-3-carboxamide]	377	96
Cc1cc(C(N)=O)nn1-c1ccc(C(C)(C)c2ccc(C3=CCC(O)CC3)cc2)cc1 (stereo not drawn) [Example 9, 1-(4-(2-(4′-hydroxy-2′,3′,4′,5′-tetrahydro-[1,1′-biphenyl]-4-yl)propan-2-yl)phenyl)-5-methyl-1H-pyrazole-3-carboxamide]	532	253
Cc1cc(C(N)=O)nn1-c1ccc(C(C)(C)c2ccc(-c3ccccn3)cc2)cc1 [Example 10, 5-methyl-1-(4-(2-(4-(pyridin-2-yl)phenyl)propan-2-yl)phenyl)-1H-pyrazole-3-carboxamide]	733	470
Cc1cc(C(N)=O)nn1-c1ccc(C(C)(C)c2ccc(-c3ccc(C4(CN)COC4)cc3)cc2)cc1 [Example 11, 1-(4-(2-(4′-(3-(aminomethyl)oxetan-3-yl)-[1,1′-biphenyl]-4-yl)propan-2-yl)phenyl)-5-methyl-1H-pyrazole-3-carboxamide]	1190	607
